“Also recorded” adds a separate entry of the source.
Columns and labels:
BVDV [1] = test: Antiviral assay: inhibition of BVDV-induced cytopathogenicity in MDBK cells; format: cell-based; settings: Bovine viral diarrhea virus isolates and strains, in Bos taurus, 72 h, read-out: BVDV EC50
[2] = Cytotoxicity assay (MTT) in mock-infected MDBK cells; format: cell-based; settings: cattle (Bos taurus); concentration reducing viability of mock-infected MDBK cells by 50%, MTT method
BVDV [3] = test: Time of drug addition assay in BVDV-infected MDBK cells (plaque reduction titer); format: cell-based, Bovine Viral Diarrhoea Virus (BVDV); settings: along the viral replication cycle (between 2 and 14 h post-infection)
BVDV [4] = format: cell-based, Bovine Viral Diarrhoea Virus (BVDV); settings: BVDV incubated with compound at 4 °C for 1 h, then used to infect cells

Compound	EC50 (BVDV [1])	CC50 [2]	melting point	antiviral activity, time of drug addition (BVDV [3])	virucidal activity (BVDV [4])
COc1cc(C(=O)Nc2ccc(-c3nc4ccccc4[nH]3)cc2)cc(OC)c1OC [Compound 1c, N-(4-(1H-Benzo[d]imidazol-2-yl)phenyl)-3,4,5-trimethoxybenzamide]	2.2 µM	28.5 µM	–	–	–
O=C(Nc1ccc(-c2nc3ccccc3[nH]2)cc1)c1ccc([N+](=O)[O-])cc1 [Compound 1d, N-(4-(1H-Benzo[d]imidazol-2-yl)phenyl)-4-nitrobenzamide]	> 100 µM	> 100 µM	> 300 °C	–	–
O=C(Nc1ccc(-c2nc3ccccc3[nH]2)cc1)c1ccc(Cl)cc1 [Compound 1e, N-(4-(1H-Benzo[d]imidazol-2-yl)phenyl)-4-chlorobenzamide]	> 100 µM	> 100 µM	170.5 °C	–	–
COc1cc(C(=O)Nc2ccc(-c3nc4cc(Cl)ccc4[nH]3)cc2)cc(OC)c1OC [Compound 2c, N-(4-(5-Chloro-1H-benzo[d]imidazol-2-yl)phenyl)-3,4,5-trimethoxybenzamide]	0.09 µM	45 µM	286 to 287 °C	consistent antiviral activity along the viral replication cycle; also recorded: detectable activity	–
O=C(Nc1ccc(-c2nc3cc(Cl)ccc3[nH]2)cc1)c1ccc([N+](=O)[O-])cc1 [Compound 2d, N-(4-(5-Chloro-1H-benzo[d]imidazol-2-yl)phenyl)-4-nitrobenzamide]	1.9 µM	> 100 µM	> 300 °C	–	–
O=C(Nc1ccc(-c2nc3cc(Cl)ccc3[nH]2)cc1)c1ccc(Cl)cc1 [Compound 2e, N-(4-(5-Chloro-1H-benzo[d]imidazol-2-yl)phenyl)-4-chlorobenzamide]	> 100 µM	> 100 µM	> 300 °C	–	–
COc1cc(C(=O)Nc2ccc(-c3nc4cc(Cl)c(Cl)cc4[nH]3)cc2)cc(OC)c1OC [Compound 3c, N-(4-(5,6-Dichloro-1H-benzo[d]imidazol-2-yl)phenyl)-3,4,5-trimethoxybenzamide]	1.3 µM	28 µM	150.6 °C	–	–
O=C(Nc1ccc(-c2nc3cc(Cl)c(Cl)cc3[nH]2)cc1)c1ccc([N+](=O)[O-])cc1 [Compound 3d, N-(4-(5,6-Dichloro-1H-benzo[d]imidazol-2-yl)phenyl)-4-nitrobenzamide]	53 µM	> 100 µM	> 300 °C	–	–
O=C(Nc1ccc(-c2nc3cc(Cl)c(Cl)cc3[nH]2)cc1)c1ccc(Cl)cc1 [Compound 3e, N-(4-(5,6-Dichloro-1H-benzo[d]imidazol-2-yl)phenyl)-4-chlorobenzamide]	> 60 µM	60 µM	161 to 162 °C	–	–
COc1cc(C(=O)Nc2ccc(-c3nc4cc(F)ccc4[nH]3)cc2)cc(OC)c1OC [Compound 4c, N-(4-(5-Fluoro-1H-benzo[d]imidazol-2-yl)phenyl)-3,4,5-trimethoxybenzamide]	41 µM	> 100 µM	171.8 °C	–	–
O=C(Nc1ccc(-c2nc3cc(F)ccc3[nH]2)cc1)c1ccc([N+](=O)[O-])cc1 [Compound 4d, N-(4-(5-Fluoro-1H-benzo[d]imidazol-2-yl)phenyl)-4-nitrobenzamide]	7.9 µM	> 100 µM	> 300 °C	–	–
O=C(Nc1ccc(-c2nc3cc(F)ccc3[nH]2)cc1)c1ccc(Cl)cc1 [Compound 4e, N-(4-(5-Fluoro-1H-benzo[d]imidazol-2-yl)phenyl)-4-chlorobenzamide]	> 100 µM	> 100 µM	138.6 °C	–	–
COc1cc(C(=O)Nc2ccc(-c3nc4cc(F)c(F)cc4[nH]3)cc2)cc(OC)c1OC [Compound 5c, N-(4-(5,6-Difluoro-1H-benzo[d]imidazol-2-yl)phenyl)-3,4,5-trimethoxybenzamide]	1.4 µM	> 100 µM	285 to 287 °C	–	–
O=C(Nc1ccc(-c2nc3cc(F)c(F)cc3[nH]2)cc1)c1ccc([N+](=O)[O-])cc1 [Compound 5d, N-(4-(5,6-Difluoro-1H-benzo[d]imidazol-2-yl)phenyl)-4-nitrobenzamide]	3.6 µM	> 100 µM	> 300 °C	–	–
O=C(Nc1ccc(-c2nc3cc(F)c(F)cc3[nH]2)cc1)c1ccc(Cl)cc1 [Compound 5e, N-(4-(5,6-Difluoro-1H-benzo[d]imidazol-2-yl)phenyl)-4-chlorobenzamide]	> 100 µM	> 100 µM	> 300 °C	–	–
COc1cc(C(=O)Nc2ccc(-c3nc4cc(C)ccc4[nH]3)cc2)cc(OC)c1OC [Compound 6c, N-(4-(5-Methyl-1H-benzo[d]imidazol-2-yl)phenyl)-3,4,5-trimethoxybenzamide]	0.23 µM	> 100 µM	–	–	almost comparable to the untreated but infected ones
Cc1ccc2nc(-c3ccc(NC(=O)c4ccc([N+](=O)[O-])cc4)cc3)[nH]c2c1 [Compound 6d, N-(4-(5-Methyl-1H-benzo[d]imidazol-2-yl)phenyl)-4-nitrobenzamide]	> 100 µM	> 100 µM	–	–	–
Cc1ccc2[nH]c(-c3ccc(NC(=O)c4ccc(Cl)cc4)cc3)nc2c1 [Compound 6e, N-(4-(5-Methyl-1H-benzo[d]imidazol-2-yl)phenyl)-4-chlorobenzamide]	> 100 µM	> 100 µM	> 300 °C	–	–
COc1cc(C(=O)Nc2ccc(-c3nc4cc(C)c(C)cc4[nH]3)cc2)cc(OC)c1OC [Compound 7c, N-(4-(5,6-Dimethyl-1H-benzo[d]imidazol-2-yl)phenyl)-3,4,5-trimethoxybenzamide]	0.3 µM	> 100 µM	272 to 274 °C	–	almost comparable to the untreated but infected ones
Cc1cc2nc(-c3ccc(NC(=O)c4ccc([N+](=O)[O-])cc4)cc3)[nH]c2cc1C [Compound 7d, N-(4-(5,6-Dimethyl-1H-benzo[d]imidazol-2-yl)phenyl)-4-nitrobenzamide]	> 100 µM	> 100 µM	> 300 °C	–	–
Cc1cc2nc(-c3ccc(NC(=O)c4ccc(Cl)cc4)cc3)[nH]c2cc1C [Compound 7e, N-(4-(5,6-Dimethyl-1H-benzo[d]imidazol-2-yl)phenyl)-4-chlorobenzamide]	> 100 µM	> 100 µM	> 300 °C	–	–
C[C@@]1(O)[C@H](O)[C@@H](CO)O[C@H]1n1cnc2c(=O)[nH]c(N)nc21 [NM 108, 2′-C-methylguanosine, reference compound]	1.5 µM	> 100 µM	–	–	–
NC(=O)c1ncn([C@@H]2O[C@H](CO)[C@@H](O)[C@H]2O)n1 [Ribavirin, ribavirin, reference compound]	18 µM	> 100 µM	–	–	–

— paper PMC9231222 (Viruses, 2022)
